14 compounds from patent US11578069B2, “Compounds for inhibition of α4 β7 integrin” (Gilead Sciences, Inc., priority 2019, dated 2023) can be followed below.

Each structure is given as a SMILES string.

One test deals with T1, α4β7 integrin (Homo sapiens, UniProt P13612+P26010).
T1 construct: monitoring the capture of α4β7 integrin expressing cells; endogenous in cells; host or cells: RPMI8866
T1 sequence (P13612 34-1032): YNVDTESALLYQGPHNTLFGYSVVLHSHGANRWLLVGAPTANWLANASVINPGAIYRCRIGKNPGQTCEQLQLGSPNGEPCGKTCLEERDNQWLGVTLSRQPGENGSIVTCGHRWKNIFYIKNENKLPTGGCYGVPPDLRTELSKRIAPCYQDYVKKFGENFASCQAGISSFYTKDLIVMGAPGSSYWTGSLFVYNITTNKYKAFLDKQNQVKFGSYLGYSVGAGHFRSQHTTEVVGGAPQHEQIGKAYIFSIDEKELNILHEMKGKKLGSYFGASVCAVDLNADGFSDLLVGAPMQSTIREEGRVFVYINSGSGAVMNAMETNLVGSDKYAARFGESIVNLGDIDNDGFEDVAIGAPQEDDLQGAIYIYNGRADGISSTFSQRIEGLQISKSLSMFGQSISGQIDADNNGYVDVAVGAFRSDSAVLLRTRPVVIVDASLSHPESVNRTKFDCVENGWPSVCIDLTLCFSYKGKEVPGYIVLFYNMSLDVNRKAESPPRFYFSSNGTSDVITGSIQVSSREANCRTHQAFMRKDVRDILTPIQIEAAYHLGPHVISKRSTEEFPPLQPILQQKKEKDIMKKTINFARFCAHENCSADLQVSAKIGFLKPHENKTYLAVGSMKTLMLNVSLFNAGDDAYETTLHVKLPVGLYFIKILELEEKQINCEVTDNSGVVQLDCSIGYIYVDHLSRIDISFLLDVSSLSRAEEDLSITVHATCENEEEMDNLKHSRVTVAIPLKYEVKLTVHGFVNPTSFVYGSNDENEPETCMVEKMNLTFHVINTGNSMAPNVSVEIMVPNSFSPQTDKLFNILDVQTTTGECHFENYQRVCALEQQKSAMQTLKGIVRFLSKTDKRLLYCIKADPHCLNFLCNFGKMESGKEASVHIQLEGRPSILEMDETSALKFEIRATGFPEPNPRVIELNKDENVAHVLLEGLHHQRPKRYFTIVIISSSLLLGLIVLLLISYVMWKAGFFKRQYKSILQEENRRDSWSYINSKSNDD
T1 sequence (P26010 20-798): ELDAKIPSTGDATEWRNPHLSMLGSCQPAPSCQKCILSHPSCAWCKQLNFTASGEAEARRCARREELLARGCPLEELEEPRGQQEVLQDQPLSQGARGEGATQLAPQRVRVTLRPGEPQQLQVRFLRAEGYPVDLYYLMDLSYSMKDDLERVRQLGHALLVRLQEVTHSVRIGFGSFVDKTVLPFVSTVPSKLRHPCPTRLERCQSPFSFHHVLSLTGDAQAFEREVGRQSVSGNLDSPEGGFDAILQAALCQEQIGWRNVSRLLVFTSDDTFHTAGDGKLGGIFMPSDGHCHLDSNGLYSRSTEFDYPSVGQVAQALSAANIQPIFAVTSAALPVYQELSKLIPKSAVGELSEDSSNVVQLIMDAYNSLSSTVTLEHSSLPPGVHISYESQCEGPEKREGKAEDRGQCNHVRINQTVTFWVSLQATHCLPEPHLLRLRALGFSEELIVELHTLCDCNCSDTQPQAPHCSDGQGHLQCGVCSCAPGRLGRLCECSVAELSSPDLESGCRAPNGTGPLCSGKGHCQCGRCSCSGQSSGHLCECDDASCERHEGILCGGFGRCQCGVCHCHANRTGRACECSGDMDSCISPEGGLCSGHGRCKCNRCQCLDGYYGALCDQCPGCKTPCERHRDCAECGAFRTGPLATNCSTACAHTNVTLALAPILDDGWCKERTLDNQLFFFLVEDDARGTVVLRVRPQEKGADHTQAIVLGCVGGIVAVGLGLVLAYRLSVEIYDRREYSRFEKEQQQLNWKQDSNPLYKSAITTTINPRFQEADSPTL
Briefly: α4β7 Integrin Cell Capture Assay. The format is cell-based. Particulars: capture of α4β7 integrin expressing RPM18866 cells on MadCAM-1 extracellular domain-coated plate. As for the experimental part: The potency of inhibitors in preventing α4β7 integrin interaction with MadCAM-1 was measured by monitoring the capture of α4β7 integrin expressing cells on a recombinant MadCAM-1 extracellular domain-coated plate.
384-well plates (Corning 3702) were coated with MadCAM-1 extracellular domain by dispensing 20 μL of MAdCAM-1 at 1.0 μg/mL per well and incubating overnight at 4° C. The plates were then washed with PBS and blocked with 3% BSA for 2 hours before being washed again.
(§1) RPM18866 cells were spun down and re-suspended in assay medium (DMEM+0.5% FBS+0.5 mM MnCl2) at a density of 0.5×10^6 cells/mL. The cells were then dispensed (60 μL/well) to a 384-well plate (Greiner 781280) that was previously spotted with 60 nL of test compound per well. The plates were incubated at 37° C. for 1 hour. 50 μL of cells were transferred to the blocked, MadCAM-1-coated plates and incubated for 30 minutes at 37° C. 10 μL of 12% glutaraldehyde containing Hoechst 33342 (0.06 mg/mL) was added to the cells (2% glutaraldehyde and 0.01 mg/mL final concentrations). The plates were incubated for 90 minutes at room temperature. The plates were then washed 3 times with 70 μL of PBS per well and imaged on a Cellomics ArrayScan instrument. The cells that were bound to the plate were counted and plotted against the compound concentration to determine the EC50 of the test compounds.

For the next test, the target named is T2, α4β1 integrin (Homo sapiens, UniProt P05556+P13612).
T2 construct: monitoring the capture of α4β1 expressing cells; endogenous in cells; host or cells: Jurkat
T2 sequence (P05556 21-798, one chain of several): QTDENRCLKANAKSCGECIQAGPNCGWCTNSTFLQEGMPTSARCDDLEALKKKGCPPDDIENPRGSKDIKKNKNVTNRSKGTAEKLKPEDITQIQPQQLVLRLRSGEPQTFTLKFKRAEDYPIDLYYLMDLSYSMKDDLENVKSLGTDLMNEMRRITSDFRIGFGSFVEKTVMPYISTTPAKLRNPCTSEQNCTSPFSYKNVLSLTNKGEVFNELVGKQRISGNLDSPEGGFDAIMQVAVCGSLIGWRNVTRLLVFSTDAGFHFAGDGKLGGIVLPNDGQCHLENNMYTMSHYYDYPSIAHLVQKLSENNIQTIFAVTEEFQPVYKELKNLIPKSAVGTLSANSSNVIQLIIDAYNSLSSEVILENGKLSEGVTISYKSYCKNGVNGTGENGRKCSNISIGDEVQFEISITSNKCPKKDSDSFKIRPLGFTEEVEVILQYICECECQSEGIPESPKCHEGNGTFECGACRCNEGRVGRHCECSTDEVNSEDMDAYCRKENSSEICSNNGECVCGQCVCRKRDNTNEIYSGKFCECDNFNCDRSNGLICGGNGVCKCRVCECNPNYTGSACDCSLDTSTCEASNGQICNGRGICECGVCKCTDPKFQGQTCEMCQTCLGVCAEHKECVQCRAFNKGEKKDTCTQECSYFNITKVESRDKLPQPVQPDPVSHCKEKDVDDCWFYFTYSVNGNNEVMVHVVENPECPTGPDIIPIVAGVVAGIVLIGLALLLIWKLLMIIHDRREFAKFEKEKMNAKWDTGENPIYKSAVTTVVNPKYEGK
Briefly: α4β1 Cell Capture Assay. Type of test: cell-based. Particulars: capture of α4β1 expressing Jurkat cells on VCAM-1 extracellular domain-coated plate. As for the experimental part: The potency of inhibitors in preventing α4β1 integrin interaction with VCAM-1 was measured by monitoring the capture of α4β1 expressing cells to a recombinant VCAM-1 extracellular domain-coated plate.
384-well plates (Corning 3702) were coated with VCAM-1 extracellular domain by dispensing 20 μL of VCAM-1 at 0.5 μg/ml per well and incubating overnight at 4° C. The plates were then washed with PBS and blocked with 3% BSA for 2 hours before being washed again.
as §1, with “Jurkat cells” for “RPM18866 cells”, “0.5×10^6 cells/ml.” for “0.5×10^6 cells/mL.”, “blocked, VCAM-1-coated” for “blocked, MadCAM-1-coated”, “10 μl” for “10 μL”, “0.01 mg/ml Hoechst 33342” for “0.01 mg/mL”

Take `Cc1cc(N2CCOC[C@@H]2C(F)(F)F)cc(F)c1C(=O)N[C@@H](Cc1cc(F)c(-n2c(=O)c3ccncc3n(C)c2=O)c(F)c1)C(=O)O` [Example 80]: the EC50 on α4β7 integrin (Table 2) came out at 0.06 nM; on α4β1 integrin (Table 2) it was 2.1 nM.
In the same order, the values of `CN(C)c1ccc2c(c1)c(=O)n(-c1ccc(C[C@H](NC(=O)c3c(F)cc(N4CCOC[C@@H]4C(F)(F)F)cc3F)C(=O)O)cc1)c(=O)n2C` [Example 36] are 1.2 nM and 27.3 nM.
For the compound `Cc1cc(N2CCOC[C@@H]2C(F)(F)F)cc(F)c1C(=O)N[C@@H](Cc1ccc(-n2c(=O)c3c(n(C)c2=O)CCC3)cc1)C(=O)O` [Example 64, (S)-2-(2-fluoro-6-methyl-4-((R)-3-(trifluoromethyl)morpholino)benzamido)-3-(4-(1-methyl-2,4-dioxo-1,2,4,5,6,7-hexahydro-3H-cyclopenta[d]pyrimidin-3-yl)phenyl)propanoic acid], the values for the EC50 at α4β7 integrin (Table 1) and at α4β1 integrin (Table 1) were 0.1 nM and 1.8 nM, respectively.
The like results for `Cc1cc(N2CCOC[C@@H]2C(F)(F)F)cc(F)c1C(=O)N[C@@H](Cc1ccc(-n2c(=O)c3ccncc3n(C)c2=O)cc1)C(=O)O` [Example 25, (S)-2-(2-fluoro-6-methyl-4-((R)-3-(trifluoromethyl)morpholino)benzamido)-3-(4-(1-methyl-2,4-dioxo-1,4-dihydropyrido[3,4-d]pyrimidin-3(2H)-yl)phenyl)propanoic acid] were, in that order, 0.1 nM and 3.4 nM.
Turning to `Cn1c(=O)c(-c2ccc(C[C@H](NC(=O)c3c(F)cc(N4CCOC[C@@H]4C(F)(F)F)cc3F)C(=O)O)cc2)cc2cnccc21` [Example 35], the EC50 at α4β7 integrin (Table 2) amounted to 1.1 nM; on α4β1 integrin (Table 2), 34.1 nM.
Consider `CC[C@@H](N(c1cc(F)c(C(=O)N[C@@H](Cc2ccc(-n3c(=O)c4ccncc4n(C)c3=O)nc2)C(=O)O)c(F)c1)C1CC1)C(F)(F)F` [Example 19, (S)-2-(4-(cyclopropyl((R)-1,1,1-trifluorobutan-2-yl)amino)-2,6-difluorobenzamido)-3-(6-(1-methyl-2,4-dioxo-1,4-dihydropyrido[3,4-d]pyrimidin-3(2H)-yl)pyridin-3-yl)propanoic acid], for which the figures for the EC50 on α4β7 integrin (Table 1) and on α4β1 integrin (Table 1) were 2 nM and 127 nM, respectively.
In the same order, the values of `Cc1cc(C(F)(F)F)c(-c2ccc(C[C@H](NC(=O)c3c(F)cc(N4CCOC[C@@H]4C(F)(F)F)cc3F)C(=O)O)cc2)c(=O)n1C` [Example 3, (S)-2-(2,6-difluoro-4-((R)-3-(trifluoromethyl)morpholino)benzamido)-3-(4-(1,6-dimethyl-2-oxo-4-(trifluoromethyl)-1,2-dihydropyridin-3-yl)phenyl)propanoic acid] are 0.5 nM and 18.5 nM.
For the compound `Cc1cc(N2CCOC[C@@H]2C(F)(F)F)cc(F)c1C(=O)N[C@@H](Cc1ccc(-n2c(=O)c3c(C#N)cccc3n(C)c2=O)nc1)C(=O)O` [Example 72], the concentration giving a half-maximal response (EC50) on α4β7 integrin (Table 2) turned out to be 0.18 nM; at α4β1 integrin (Table 2), 4 nM.
In the case of `Cc1cc(N2CCOC[C@@H]2C(F)(F)F)cc(F)c1C(=O)N[C@@H](Cc1ccc(-n2c(=O)c3ccncc3n(C)c2=O)c(OC(F)(F)F)c1)C(=O)O` (atropisomer, axis not shown) [Example 92], the results for the EC50 on α4β7 integrin (Table 2) and on α4β1 integrin (Table 2) were 0.2 nM and 1.3 nM, respectively.
`Cc1cc(N2CCOC[C@@H]2CC(F)F)cc(F)c1C(=O)N[C@@H](Cc1ccc(-n2c(=O)c3c(n(C)c2=O)COC3)cc1)C(=O)O` [Example 70, (S)-2-(4-((S)-3-(2,2-difluoroethyl)morpholino)-2-fluoro-6-methylbenzamido)-3-(4-(1-methyl-2,4-dioxo-1,2,5,7-tetrahydrofuro[3,4-d]pyrimidin-3(4H)-yl)phenyl)propanoic acid]: the values for the EC50 on α4β7 integrin (Table 1) and on α4β1 integrin (Table 1) were 3.9 nM and 2.4 nM, respectively.
On to `Cc1cc(C[C@H](NC(=O)c2c(C)cc(N3CCOC[C@@H]3C(F)(F)F)cc2F)C(=O)O)ccc1-c1c(C)n(C)c(=O)n(C)c1=O` [Example 31], for which the EC50 on α4β7 integrin (Table 2) was determined as 0.2 nM; on α4β1 integrin (Table 2), 11.6 nM.
In the case of `COc1cc(C)n(C)c(=O)c1-c1ccc(C[C@H](NC(=O)c2c(F)cc(N3CCOC[C@@H]3C(F)(F)F)cc2F)C(=O)O)cc1` [Example 30], the EC50 at α4β7 integrin (Table 2) amounted to 0.5 nM; on α4β1 integrin (Table 2), 10.1 nM.
In the same order, the values of `Cc1cc(N2CCOC[C@H]2CC(F)(F)F)cc(F)c1C(=O)N[C@@H](Cc1ccc(-n2c(=O)c3ccncc3n(C)c2=O)nc1)C(=O)O` [Example 86] are 4.2 nM and 46.1 nM.
As for `COc1cc(C[C@H](NC(=O)c2c(C)cc(N3CCOC[C@@H]3C(F)(F)F)cc2F)C(=O)O)ccc1-n1c(=O)c2ccncc2n(C)c1=O` [Example 27, (S)-2-(2-fluoro-6-methyl-4-((R)-3-(trifluoromethyl)morpholino)benzamido)-3-(3-methoxy-4-(1-methyl-2,4-dioxo-1,4-dihydropyrido[3,4-d]pyrimidin-3(2H)-yl)phenyl)propanoic acid], the EC50 was 0.1 nM on α4β7 integrin (Table 1) and 8.6 nM at α4β1 integrin (Table 1).

In general, EC50 refers to the concentration giving half of the maximal effect. The low end stands for greater potency, the high end for weaker potency.
